Results published in US20170216421A1, “MANUFACTURING OF MULTI-DOSE INJECTION READY DENDRITIC CELL VACCINES, COMBINATION THERAPIES FOR BLOCKING HER2 AND HER3, AND ESTROGEN RECEPTOR POSITIVE HER2 BREAST RECEPTOR POSITIVE HER2 BREAST CANCER THERAPY” (THE TRUSTEES OF THE UNIVERSITY OF PENNSYLVANIA, priority 2015, published 2017).

Tests used:
[1] = test system: MCF7 (HER2^neg 2+/ER^pos); assay: Alamar Blue metabolic activity assay; format: cell-based, human; details: 72 hours
Experimental: (§1) Breast cancer cell lines, SKBR3 (HER2^pos/ER^neg) and MCF7 (HER2^neg 2+/ER^pos), were treated with Th1 cytokines (IFNγ and TNFα), a tamoxifen metabolite (4-hydroxytamoxifen, “4HT”), or both for 72 hours. Metabolic activity was measured via Alamar Blue assay.

SKBR3 (HER2^pos/ER^neg) = assay: Alamar Blue metabolic activity assay; format: cell-based, human; details: 72 hours
Experimental: as §1

[2] = test system: BRAF^V600EPTEN^−/− melanoma; assay: Transplantable melanoma model: tumor growth and survival; format: in vivo, mice; details: administered alone
Experimental: A transplantable BRAF^V600EPTEN^−/− melanoma model was developed in the C57Bl/6 background. DC1 were generated from bone marrow precursors using Flt3, IL-6, GM-CSF, IL-4, CpG and LPS, and pulsed with class I BRAF^V600E peptide. In addition to untreated and ovalbumin-DC1 controls, BRAF^V600E-DC1 (2× weekly injections) and PLX were administered alone or in designated combinations to tumor-bearing mice (n=10 each). Tumor growth and survival were determined.

| Compound | anti-tumor activity / metabolic activity [1] | anti-tumor activity / metabolic activity (SKBR3 (HER2^pos/ER^neg)) | median survival [2] [days] |
| --- | --- | --- | --- |
| 4-hydroxytamoxifen [4HT] | did not increase anti-tumor activity | not in response to anti-estrogen treatment | – |
| CCCS(=O)(=O)Nc1ccc(F)c(C(=O)c2c[nH]c3ncc(-c4ccc(Cl)cc4)cc23)c1F [PLX, vemurafenib] | – | – | 43.5 |
